For the experiment, the target named is T1, human JAK2 (Homo sapiens, UniProt O60674).
T1 construct: JAK2 (a.a. 828-1132); His tag (N); made in house; host or cells: insect cells (baculovirus)
Nature of the experiment: In vitro JAK kinase assay (HTRF, phosphorylation of biotinylated peptide). Format: biochemical. The note with it: catalytic domain a.a. 828-1132, 30 μM ATP, 500 nM peptide, room temperature 1 hr; read-out: JAK-2 IC50. An outline of the steps:
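His-tagged human JAK2 catalytic domain (a.a. 828-1132), baculovirus/insect-cell expressed; phosphorylation of 500 nM biotinylated peptide at 30 μM ATP in 50 mM Tris pH 7.8, 100 mM NaCl, 5 mM DTT, 0.01% BSA. 1 h at room temperature, EDTA stop, HTRF read (Eu-Py20/SA-APC); IC50.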

Structures are written as SMILES.

T1 sequence (O60674 828-1132): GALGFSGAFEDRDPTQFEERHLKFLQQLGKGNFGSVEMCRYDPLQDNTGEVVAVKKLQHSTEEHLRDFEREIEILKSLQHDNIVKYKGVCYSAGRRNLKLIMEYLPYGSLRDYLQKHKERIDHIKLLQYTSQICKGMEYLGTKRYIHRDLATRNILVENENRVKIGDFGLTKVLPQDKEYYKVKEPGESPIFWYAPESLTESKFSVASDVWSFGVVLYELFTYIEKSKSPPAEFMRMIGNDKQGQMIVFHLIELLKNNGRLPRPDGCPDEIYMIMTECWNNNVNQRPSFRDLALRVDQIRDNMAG

On to `CNC(=O)c1ccc(Nc2ncc(C)c(-c3cnn(C(CC#N)C4CCCC4)c3)n2)cc1` (racemic) [Example 86, 4-(4-(1-(2-cyano-1-cyclopentylethyl)-1H-pyrazol-4-yl)-5-methylpyrimidin-2-ylamino)-N-methylbenzamide], for which the IC50 (in general, the concentration that gives 50% inhibition) was under 0.1 µM.
As to `CN1CCCC1CCNC(=O)c1cccc(Nc2nccc(-c3cnn(C(CC#N)C4CCCC4)c3)n2)c1` (stereo not shown) [Example 149, 3-(4-(1-(2-cyano-1-cyclopentylethyl)-1H-pyrazol-4-yl)pyrimidin-2-ylamino)-N-(2-(1-methylpyrrolidin-2-yl)ethyl)benzamide], the IC50 was under 0.1 µM.
The figure for `N#CCC1(n2cc(-c3ccnc(Nc4ccc(C(=O)N5CCOCC5)cc4)n3)cn2)CC(C#N)C1` (single isomer, unassigned) [Example 287, 3-(cyanomethyl)-3-(4-(2-(4-(morpholine-4-carbonyl)phenylamino)pyrimidin-4-yl)-1H-pyrazol-1-yl)cyclobutanecarbonitrile] is under 0.1 µM; for `CCS(=O)(=O)N1CC(CC#N)(n2cc(-c3ccnc(Nc4ccc(C(=O)N5CCC5)cc4)n3)cn2)C1` [Example 273, 2-(3-(4-(2-(4-(azetidine-1-carbonyl)phenylamino)pyrimidin-4-yl)-1H-pyrazol-1-yl)-1-(ethylsulfonyl)azetidin-3-yl)acetonitrile] it is under 0.1 µM; for `Cc1cnc(Nc2ccccc2)nc1-c1cnn(C(CC#N)C2CCCC2)c1` (racemic) [Example 73, 3-cyclopentyl-3-(4-(5-methyl-2-(phenylamino)pyrimidin-4-yl)-1H-pyrazol-1-yl)propanenitrile] it is under 0.1 µM.
Turning to `CN1CCN(C(=O)c2ccc(Nc3nccc(-c4cnn(C5(CC#N)CC(C#N)C5)c4)n3)cc2)CC1` (single isomer, unassigned) [Example 293, 3-(cyanomethyl)-3-(4-(2-(4-(4-methylpiperazine-1-carbonyl)phenylamino)pyrimidin-4-yl)-1H-pyrazol-1-yl)cyclobutanecarbonitrile], the IC50 is under 0.1 µM.
As to `N#CCC(C1CCCC1)n1cc(-c2ccnc(Nc3ccc(NC(=O)CN4CCNC(=O)C4)cc3)n2)cn1` (racemic) [Example 206, N-(4-(4-(1-(2-cyano-1-cyclopentylethyl)-1H-pyrazol-4-yl)pyrimidin-2-ylamino)phenyl)-2-(3-oxopiperazin-1-yl)acetamide], the IC50 was under 0.1 µM.
The figure for `N#CCC(C1CCCC1)n1cc(-c2ccnc(Nc3cccc(NC(=O)O[C@@H]4CCOC4)c3)n2)cn1` (stereo partly drawn) [Example 200, (R)-tetrahydrofuran-3-yl 3-(4-(1-(2-cyano-1-cyclopentylethyl)-1H-pyrazol-4-yl)pyrimidin-2-ylamino)phenylcarbamate] is under 0.1 µM; for `Cn1ccc(S(=O)(=O)N2CCC(CC(CC#N)n3cc(-c4ccnc(Nc5ccccc5)n4)cn3)CC2)n1` (racemic) [Example 57, 4-(1-(1-methyl-1H-pyrazol-3-ylsulfonyl)piperidin-4-yl)-3-(4-(2-(phenylamino)pyrimidin-4-yl)-1H-pyrazol-1-yl)butanenitrile] it is under 0.1 µM.
To `Cc1cnc(Nc2ccc(N)cc2)nc1-c1cnn(C(CC#N)C2CCCC2)c1` (racemic) [Example 85, 3-(4-(2-(4-aminophenylamino)-5-methylpyrimidin-4-yl)-1H-pyrazol-1-yl)-3-cyclopentylpropanenitrile] belongs under 0.1 µM; to `CC(=O)N1CCN(C(=O)c2ccc(Nc3nccc(-c4cnn(C(CC#N)C5CC5)c4)n3)cc2)CC1` (racemic) [Example 269, 3-(4-(2-(4-(4-acetylpiperazine-1-carbonyl)phenylamino)pyrimidin-4-yl)-1H-pyrazol-1-yl)-3-cyclopropylpropanenitrile], under 0.1 µM; to `CCOC(=O)N1CCC(NC(=O)c2ccc(Nc3nccc(-c4cnn(C(CC#N)C5CC5)c4)n3)cc2)CC1` (racemic) [Example 272, Ethyl 4-(4-(4-(1-(2-cyano-1-cyclopropylethyl)-1H-pyrazol-4-yl)pyrimidin-2-ylamino)benzoyl)aminopiperidine-1-carboxylate], under 0.1 µM.
As to `N#CCC(C1CCCC1)n1cc(-c2ccnc(Nc3ccc(N4CCCC4=O)cc3)n2)cn1` (racemic) [Example 129, 3-cyclopentyl-3-(4-(2-(4-(2-oxopyrrolidin-1-yl)phenylamino)pyrimidin-4-yl)-1H-pyrazol-1-yl)propanenitrile], the IC50 is under 0.1 µM.
For the compound `CN(C(=O)c1ccc(Nc2nccc(-c3cnn(C(CC#N)C4CCCC4)c3)n2)cc1)[C@H]1CC[C@@H](O)CC1` (mixture of isomers) [Example 217, 4-(4-(1-(2-cyano-1-cyclopentylethyl)-1H-pyrazol-4-yl)pyrimidin-2-ylamino)-N-(cis-4-hydroxycyclohexyl)-N-methylbenzamide], the IC50 was under 0.1 µM.
On to `CN1CCN(C(=O)c2cccc(Nc3nccc(-c4cnn(C(CC#N)C5CCCC5)c4)n3)c2)CC1` (racemic) [Example 137, 3-cyclopentyl-3-(4-(2-(3-(4-methylpiperazine-1-carbonyl)phenylamino)pyrimidin-4-yl)-1H-pyrazol-1-yl)propanenitrile], for which the IC50 is under 0.1 µM.
The figure for `N#CCC(C1CCCC1)n1cc(-c2ccnc(Nc3ccc(C(=O)NC4CCN(c5ccccn5)C4)cc3)n2)cn1` (mixture of isomers) [Example 232, 4-(4-(1-(2-cyano-1-cyclopentylethyl)-1H-pyrazol-4-yl)pyrimidin-2-ylamino)-N-(1-(pyridin-2-yl)pyrrolidin-3-yl)benzamide] is under 0.1 µM; for `N#CCC(C1CC1)n1cc(-c2ccnc(Nc3ccc(C(=O)N4CC[C@H](F)C4)cc3)n2)cn1` (mixture of isomers) [Example 271, 3-cyclopropyl-3-(4-(2-(4-((S)-3-fluoropyrrolidine-1-carbonyl)phenylamino)pyrimidin-4-yl)-1H-pyrazol-1-yl)propanenitrile] it is under 0.1 µM.
In the case of `COC[C@H]1CCCN1CC(=O)Nc1ccc(Nc2nccc(-c3cnn(C(CC#N)C4CCCC4)c3)n2)cc1` (mixture of isomers) [Example 209, N-(4-(4-(1-(2-cyano-1-cyclopentylethyl)-1H-pyrazol-4-yl)pyrimidin-2-ylamino)phenyl)-2-((R)-2-(methoxymethyl)pyrrolidin-1-yl)acetamide], the IC50 was under 0.1 µM.
For `N#CCC1(n2cc(-c3ccnc(Nc4ccc(N5CCCOC5=O)cc4)n3)cn2)CC(C#N)C1` (single isomer, unassigned) [Example 337, 3-(cyanomethyl)-3-[4-(2-{[4-(2-oxo-1,3-oxazinan-3-yl)phenyl]amino}pyrimidin-4-yl)-1H-pyrazol-1-yl]cyclobutanecarbonitrile], the IC50 was under 0.1 µM.
The figure for `N#CCC(C1CCOCC1)n1cc(-c2ccnc(Nc3ccc(C(=O)N4CCC(O)CC4)cc3)n2)cn1` (racemic) [Example 312, 3-{4-[2-({4-[(4-hydroxypiperidin-1-yl)carbonyl]phenyl}amino)pyrimidin-4-yl]-1H-pyrazol-1-yl}-3-(tetrahydro-2H-pyran-4-yl)propanenitrile] is under 0.1 µM; for `N#CCC(C1CC1)n1cc(-c2ccnc(Nc3ccc(C(=O)N4CCC(O)CC4)cc3)n2)cn1` (racemic) [Example 251, 3-cyclopropyl-3-(4-(2-(4-(4-hydroxypiperidine-1-carbonyl)phenylamino)pyrimidin-4-yl)-1H-pyrazol-1-yl)propanenitrile] it is under 0.1 µM; for `Cc1cnc(Nc2ccc(-n3cccn3)cc2)nc1-c1cnn(C(CC#N)CC2CCN(S(=O)(=O)c3ccn(C)n3)CC2)c1` (racemic) [Example 63, 3-(4-(2-(4-(1H-pyrazol-1-yl)phenylamino)-5-methylpyrimidin-4-yl)-1H-pyrazol-1-yl)-4-(1-(1-methyl-1H-pyrazol-3-ylsulfonyl)piperidin-4-yl)butanenitrile] it is under 0.1 µM.
The figure for `N#CCC(C1CCC1)n1cc(-c2ccnc(Nc3ccc(N4CCOCC4)cc3)n2)cn1` (racemic) [Example 171, 3-cyclobutyl-3-(4-(2-(4-morpholinophenylamino)pyrimidin-4-yl)-1H-pyrazol-1-yl)propanenitrile] is under 0.1 µM; for `CN(C)C(=O)c1ccc(Nc2nccc(-c3cnn(C4(CC#N)CCN(S(=O)(=O)C5CC5)CC4)c3)n2)cc1` [Example 32, 4-(4-(1-(4-(cyanomethyl)-1-(cyclopropylsulfonyl)piperidin-4-yl)-1H-pyrazol-4-yl)pyrimidin-2-ylamino)-N,N-dimethylbenzamide] it is under 0.1 µM; for `COc1cnc(Nc2cccc(-c3cnco3)c2)nc1-c1cnn(C(CC#N)C2CCCC2)c1` (racemic) [Example 132, 3-cyclopentyl-3-(4-(5-methoxy-2-(3-(oxazol-5-yl)phenylamino)pyrimidin-4-yl)-1H-pyrazol-1-yl)propanenitrile] it is under 0.1 µM.
For the compound `N#CCC(C1CCCC1)n1cc(-c2ccnc(Nc3ccc(C(=O)N4CCNC(=O)C4)cc3)n2)cn1` (racemic) [Example 123, 3-cyclopentyl-3-(4-(2-(4-(3-oxopiperazine-1-carbonyl)phenylamino)pyrimidin-4-yl)-1H-pyrazol-1-yl)propanenitrile], the IC50 is under 0.1 µM.
To `N#CCC(C1CCCC1)n1cc(-c2ccnc(Nc3ccc(OCCN4CCCC4)cc3)n2)cn1` (racemic) [Example 306, 3-cyclopentyl-3-[4-(2-{[4-(2-pyrrolidin-1-ylethoxy)phenyl]amino}pyrimidin-4-yl)-1H-pyrazol-1-yl]propanenitrile] belongs under 0.1 µM; to `COC1CCN(C(=O)c2ccc(Nc3nccc(-c4cnn(C5(CC#N)CC(C#N)C5)c4)n3)cc2)CC1` (single isomer, unassigned) [Example 295, 3-(cyanomethyl)-3-(4-(2-(4-(4-methoxypiperidine-1-carbonyl)phenylamino)pyrimidin-4-yl)-1H-pyrazol-1-yl)cyclobutanecarbonitrile], under 0.1 µM.
